Each block holds one molecule with its values, some of them ahead of it.
Assays:
[1] = system: Rat Ear Oedema; experiment: Anti-Inflammatory Activity--Inhibition of Rat Ear Oedema (croton oil); format: in vivo; conditions: dose 100 μg, inner surface of ears, male rats, 6 hours
Procedure: (i) Anti-Inflammatory Activity--Inhibition of Rat Ear Oedema
The test compounds are dissolved in acetone and 40ul containing 5% croton oil is applied to the inner surface of each of the ears of 60-80 g male rats. Animals are killed 6 hours later and the ears are removed. Standard size (0.5 cm diameter) discs are punched out and the discs weighed. Mean weight of the ear discs is calculated and from this percentage inhibition of ear inflammation in relation to croton oil alone treated ears are calculated.

[2] = system: ACTH; experiment: Systemic Effects--ACTH Suppression in Adrenalectomised Rats; format: in vivo, Male CD rats; conditions: single intra-tracheal, 4 h
Procedure: (ii) Systemic Effects--ACTH Suppression in Adrenalectomised Rats
Male CD rats (90-120 g) were adrenalectomised under Isoflurane anaesthesia and drinking water was supplemented with 0.9% saline. Four days later the animals receive a single intra-tracheal dose (under Isoflurane anaesthesia) of compound suspended in saline (containing 0.2% Tween-80, 0.2 ml) at 10am. After 4 h animals are sacrificed by administration of Euthetal and blood samples are taken by intra-cardiac puncture and collected into heparinised tubes. The samples are centrifuged (20 minutes at 1000 RPM at 4 deg C.), the plasma is collected and assayed by Radioimmunoassay (RIA) for Adrenocorticotrophic hormone (ACTH) using a DPC double antibody RIA kit. Intact and vehicle control groups were included in each experiment in order to account for diurnal variation in ACTH and effects of vehicle. Results are calculated with respect to the RIA standard curve and expressed as ACTH pg/ml plasma, allowing percentage reduction in ACTH to be calculated.

Compound: CCC[C@@H]1O[C@@H]2C[C@H]3[C@@H]4C[C@H](F)C5=CC(=O)CC[C@]5(C)[C@@]4(F)[C@@H](O)C[C@]3(C)[C@]2(SC2CCOC2=O)O1 (single isomer, unassigned) [Example 3 Isomer A, 16α,17α-(R-Butylidenedioxy)-6α,9α-difluoro-11β-hydroxy-17β-(2-oxo-tetrahydro-furan-3-yl-sulfanyl)-androst-4-en-3-one]
% Inhibition (ear inflammation) [1]: 55%

Compound: CC1(C)O[C@@H]2C[C@H]3[C@@H]4C[C@H](F)C5=CC(=O)C=C[C@]5(C)[C@@]4(F)[C@@H](O)C[C@]3(C)[C@]2(SC2CCOC2=O)O1 (single isomer, unassigned) [Example 2 Isomer A, 6α,9α-Difluoro-11β-hydroxy-16α,17α-isopropylidenedioxy-17β-(2-oxo-tetrahydro-furan-3-yl-sulfanyl)-androsta-1,4-dien-3-one]
% Inhibition (ear inflammation) [1]: 56%
% Reduction in ACTH ([2]; dose 125 μg): 5%
% Reduction in ACTH ([2]; dose 250 μg): 29%
% Reduction in ACTH ([2]; dose 500 μg): 45%

Compound: CC1(C)O[C@@H]2C[C@H]3[C@@H]4C[C@H](F)C5=CC(=O)C=C[C@]5(C)[C@@]4(F)[C@@H](O)C[C@]3(C)[C@]2(S[C@H]2CCOC2=O)O1 (single isomer, unassigned) [Example 2 Isomer B, 6α,9α-Difluoro-11β-hydroxy-16α,17α-isopropylidenedioxy-17β-(2-oxo-tetrahydro-furan-3-yl-sulfanyl)-androsta-1,4-dien-3-one]
% Inhibition (ear inflammation) [1]: 54%

% Reduction in ACTH ([2]; dose 1 μg): 49%
% Reduction in ACTH ([2]; dose 5 μg): 84%
Compound: CC1(C)O[C@@H]2C[C@H]3[C@@H]4C[C@H](F)C5=CC(=O)C=C[C@]5(C)[C@@]4(F)[C@@H](O)C[C@]3(C)[C@]2(C(=O)CO)O1 [Fluocinolone acetonide, reference compound]
